Key:
Format in all cases: in vivo
[1] = system: Italian ryegrass (Lolium multiflorum); experiment: Test A preemergence, visual plant response rating; details: for Ryegrass, Italian plant response rating: 125 g ai/ha, preemergence, 0 to 100 scale, 0 no effect, 100 complete control; for Ryegrass, Italian plant response rating (0 to 100 scale): 500 g ai/ha Preemergence, approx. 10 days
Summary of the method: (§1)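 Ratings 0–100 (100 = complete control), visual, vs untreated controls at ~10 days. Application pre- or postemergence; solvent mixture with surfactant; loam/sand medium.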

[2] = system: foxtail, giant (giant foxtail, Setaria faberii); experiment: Test A preemergence, visual plant response rating; details: for Foxtail, Giant plant response rating: 125 g ai/ha, preemergence, 0 to 100 scale, 0 no effect, 100 complete control; for Foxtail, Giant plant response rating (0 to 100 scale): 500 g ai/ha Preemergence, approx. 10 days
Summary of the method: as §1

[3] = system: ragweed (common ragweed, Ambrosia elatior); experiment: Test A preemergence, visual plant response rating; details: for Ragweed plant response rating: 125 g ai/ha, preemergence, 0 to 100 scale, 0 no effect, 100 complete control; for Ragweed plant response rating (0 to 100 scale): 500 g ai/ha Preemergence, approx. 10 days
Summary of the method: as §1

[4] = system: pigweed (Amaranthus retroflexus); experiment: Test A preemergence, visual plant response rating; details: for Pigweed plant response rating: 125 g ai/ha, preemergence, 0 to 100 scale, 0 no effect, 100 complete control; for Pigweed plant response rating (0 to 100 scale): 500 g ai/ha Preemergence, approx. 10 days
Summary of the method: as §1

[5] = system: kochia (Kochia scoparia); experiment: Test A preemergence, visual plant response rating; details: for Kochia plant response rating: 125 g ai/ha, preemergence, 0 to 100 scale, 0 no effect, 100 complete control; for Kochia plant response rating (0 to 100 scale): 500 g ai/ha Preemergence, approx. 10 days
Summary of the method: as §1

[6] = system: barnyardgrass (Echinochloa crus-galli); experiment: Test A preemergence, visual plant response rating; details: for Barnyardgrass plant response rating: 125 g ai/ha, preemergence, 0 to 100 scale, 0 no effect, 100 complete control; for Barnyardgrass plant response rating (0 to 100 scale): 500 g ai/ha Preemergence, approx. 10 days
Summary of the method: as §1

[7] = system: ducksalad (Heteranhera limosa); experiment: Test B flooded paddy test, visual plant response rating; details: 250 g ai/ha, Flood, applied to paddy water, 2-leaf stage, evaluated after 13 to 15 days
Summary of the method: (§2)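 Rice, umbrella sedge, ducksalad and barnyardgrass grown to 2-leaf stage; pots flooded 3 cm above soil and compound applied directly to paddy water, depth maintained.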

[8] = system: rice (Oryza sativa); experiment: as above; details: 250 g ai/ha, Flood, applied to paddy water, 2-leaf stage, evaluated after 13 to 15 days
Summary of the method: as §2

[9] = system: barnyardgrass (Echinochloa crus-galli); experiment: as above; details: 250 g ai/ha, Flood, applied to paddy water, 2-leaf stage, evaluated after 13 to 15 days
Summary of the method: as §2

[10] = system: sedge, umbrella (small-flower umbrella sedge, Cyperus difformis); experiment: as above; details: 250 g ai/ha, Flood, applied to paddy water, 2-leaf stage, evaluated after 13 to 15 days
Summary of the method: as §2

[11] = system: Italian ryegrass (Lolium multiflorum); experiment: Test A postemergence, visual plant response rating; details: for Ryegrass, Italian plant response rating (0 to 100 scale): 500 g ai/ha, postemergence, 0 is no effect, 100 is complete control; for Ryegrass, Italian plant response rating: Postemergence, 125 g ai/ha, 0 to 100 scale (0 no effect, 100 complete control)
Summary of the method: as §1

[12] = system: galium (catchweed bedstraw, Galium aparine); experiment: Test A postemergence, visual plant response rating; details: for Galium plant response rating (0 to 100 scale): 500 g ai/ha, postemergence, 0 is no effect, 100 is complete control; for Galium plant response rating: Postemergence, 125 g ai/ha, 0 to 100 scale (0 no effect, 100 complete control)
Summary of the method: as §1

[13] = system: foxtail, giant (giant foxtail, Setaria faberii); experiment: Test A postemergence, visual plant response rating; details: for Foxtail, Giant plant response rating (0 to 100 scale): 500 g ai/ha, postemergence, 0 is no effect, 100 is complete control; for Foxtail, Giant plant response rating: Postemergence, 125 g ai/ha, 0 to 100 scale (0 no effect, 100 complete control)
Summary of the method: as §1

[14] = system: ragweed (common ragweed, Ambrosia elatior); experiment: Test A postemergence, visual plant response rating; details: for Ragweed plant response rating (0 to 100 scale): 500 g ai/ha, postemergence, 0 is no effect, 100 is complete control; for Ragweed plant response rating: Postemergence, 125 g ai/ha, 0 to 100 scale (0 no effect, 100 complete control)
Summary of the method: as §1

[15] = system: pigweed (Amaranthus retroflexus); experiment: Test A postemergence, visual plant response rating; details: for Pigweed plant response rating (0 to 100 scale): 500 g ai/ha, postemergence, 0 is no effect, 100 is complete control; for Pigweed plant response rating: Postemergence, 125 g ai/ha, 0 to 100 scale (0 no effect, 100 complete control)
Summary of the method: as §1

[16] = system: kochia (Kochia scoparia); experiment: Test A postemergence, visual plant response rating; details: for Kochia plant response rating (0 to 100 scale): 500 g ai/ha, postemergence, 0 is no effect, 100 is complete control; for Kochia plant response rating: Postemergence, 125 g ai/ha, 0 to 100 scale (0 no effect, 100 complete control)
Summary of the method: as §1

[17] = system: barnyardgrass (Echinochloa crus-galli); experiment: Test A postemergence, visual plant response rating; details: for Barnyardgrass plant response rating (0 to 100 scale): 500 g ai/ha, postemergence, 0 is no effect, 100 is complete control; for Barnyardgrass plant response rating: Postemergence, 125 g ai/ha, 0 to 100 scale (0 no effect, 100 complete control)
Summary of the method: as §1

[18] = system: corn (Zea mays); experiment: Test A postemergence, visual plant response rating; details: for Corn plant response rating (0 to 100 scale): 500 g ai/ha, postemergence, 0 is no effect, 100 is complete control; for Corn plant response rating: Postemergence, 125 g ai/ha, 0 to 100 scale (0 no effect, 100 complete control)
Summary of the method: as §1

[19] = system: blackgrass (Alopecurus myosuroides); experiment: Test A postemergence, visual plant response rating; details: for Blackgrass plant response rating (0 to 100 scale): 500 g ai/ha, postemergence, 0 is no effect, 100 is complete control; for Blackgrass plant response rating: Postemergence, 125 g ai/ha, 0 to 100 scale (0 no effect, 100 complete control)
Summary of the method: as §1

[20] = system: wheat (Triticum aestivum); experiment: Test A postemergence, visual plant response rating; details: for Wheat plant response rating (0 to 100 scale): 500 g ai/ha, postemergence, 0 is no effect, 100 is complete control; for Wheat plant response rating: Postemergence, 125 g ai/ha, 0 to 100 scale (0 no effect, 100 complete control)
Summary of the method: as §1

SMILES | Ryegrass, Italian plant response rating [1] | Ryegrass, Italian plant response rating (0 to 100 scale) [1] | Foxtail, Giant plant response rating [2] | Foxtail, Giant plant response rating (0 to 100 scale) [2] | Ragweed plant response rating [3] | Ragweed plant response rating (0 to 100 scale) [3] | Pigweed plant response rating [4] | Pigweed plant response rating (0 to 100 scale) [4] | Kochia plant response rating [5] | Kochia plant response rating (0 to 100 scale) [5] | Barnyardgrass plant response rating [6] | Barnyardgrass plant response rating (0 to 100 scale) [6] | Plant response rating, Ducksalad (0 to 100 scale, 0 is no effect, 100 is complete control) [7] | Plant response rating, Rice (0 to 100 scale, 0 is no effect, 100 is complete control) [8] | Plant response rating, Barnyardgrass (0 to 100 scale, 0 is no effect, 100 is complete control) [9] | Plant response rating, Sedge, Umbrella (0 to 100 scale, 0 is no effect, 100 is complete control) [10] | Ryegrass, Italian plant response rating (0 to 100 scale) [11] | Ryegrass, Italian plant response rating [11] | Galium plant response rating (0 to 100 scale) [12] | Galium plant response rating [12] | also measured
CO/N=C(\c1ccccc1C(C)C)c1c(O)c(C)nn(C)c1=O [Compound 94] | 50 | 90 | 20 | 60 | 10 | 70 | 10 | 70 | 0 | 10 | 10 | 50 | 0 | 0 | 0 | 0 | 80 | 30 | 70 | 60 | Foxtail, Giant plant response rating (0 to 100 scale) [13]: 70; Foxtail, Giant plant response rating [13]: 40; Ragweed plant response rating (0 to 100 scale) [14]: 70; Ragweed plant response rating [14]: 50; Pigweed plant response rating (0 to 100 scale) [15]: 80; Pigweed plant response rating [15]: 50; Kochia plant response rating (0 to 100 scale) [16]: 60; Kochia plant response rating [16]: 20; Barnyardgrass plant response rating (0 to 100 scale) [17]: 30; Barnyardgrass plant response rating [17]: 20; Corn plant response rating (0 to 100 scale) [18]: 20; Corn plant response rating [18]: 10; Blackgrass plant response rating (0 to 100 scale) [19]: 80; Blackgrass plant response rating [19]: 20; Wheat plant response rating (0 to 100 scale) [20]: 40; Wheat plant response rating [20]: 0
CO/N=C(/c1cc(Cl)ccc1C(F)(F)F)c1c(O)c(C)nn(C)c1=O [Compound 95] | 90 | 100 | 80 | 100 | 30 | 100 | 50 | 100 | 10 | 70 | 60 | 60 | 0 | 0 | 0 | 0 | 100 | 80 | 90 | 80 | Foxtail, Giant plant response rating (0 to 100 scale) [13]: 80; Foxtail, Giant plant response rating [13]: 60; Ragweed plant response rating (0 to 100 scale) [14]: 90; Ragweed plant response rating [14]: 80; Pigweed plant response rating (0 to 100 scale) [15]: 80; Pigweed plant response rating [15]: 70; Kochia plant response rating (0 to 100 scale) [16]: 80; Kochia plant response rating [16]: 60; Barnyardgrass plant response rating (0 to 100 scale) [17]: 60; Barnyardgrass plant response rating [17]: 50; Corn plant response rating (0 to 100 scale) [18]: 40; Corn plant response rating [18]: 0; Blackgrass plant response rating (0 to 100 scale) [19]: 100; Blackgrass plant response rating [19]: 60; Wheat plant response rating (0 to 100 scale) [20]: 70; Wheat plant response rating [20]: 40
CON=C(c1c(O)c(C)nn(C)c1=O)c1cccc2cc(Br)ccc12 [Compound 96] | 30 | 100 | 70 | 100 | 90 | 100 | 80 | 100 | 20 | 100 | 60 | 80 | 0 | 0 | 0 | 0 | 80 | 80 | 90 | 90 | Foxtail, Giant plant response rating (0 to 100 scale) [13]: 70; Foxtail, Giant plant response rating [13]: 20; Ragweed plant response rating (0 to 100 scale) [14]: 100; Ragweed plant response rating [14]: 90; Pigweed plant response rating (0 to 100 scale) [15]: 90; Pigweed plant response rating [15]: 80; Kochia plant response rating (0 to 100 scale) [16]: 80; Kochia plant response rating [16]: 60; Barnyardgrass plant response rating (0 to 100 scale) [17]: 30; Barnyardgrass plant response rating [17]: 20; Corn plant response rating (0 to 100 scale) [18]: 30; Corn plant response rating [18]: 10; Blackgrass plant response rating (0 to 100 scale) [19]: 100; Blackgrass plant response rating [19]: 90; Wheat plant response rating (0 to 100 scale) [20]: 50; Wheat plant response rating [20]: 0

Reference: patent US20210045385A1, “PYRIDAZINONE-SUBSTITUTED KETOXIMES AS HERBICIDES” (FMC Corporation, priority 2018, published 2021)
